Key:
rats = conditions: rat, in vivo; cited from earlier work
C57/BL6 mice = test: Preliminary in vivo toxicity study, blood cell count (Cell Dyn 3500/3700); parameters: species or system mouse
Experimental: FIGS. 11-25 depict the in vivo toxicity study for the natural and synthetic forms (respectively “NAT” and “SYN”) of geranyl acetate—a molecule called “AISA 5201” and selected for its representativeness of the AISA class—in a mouse model, for blood cell count parameters, at concentrations of 5, 10, 25, and 50 μg/mouse which correspond to non-toxic in vitro concentrations, allowing the desired biological effect to be observed, i.e. the inhibition of endothelial adhesion and endothelial actin polymerisation.
Two methods were used, one with the synthetic form named herein “SYN” (SIGMA catalogue number 173495), and the other with the natural unfiltered form (derived from geranium essential oils treated by HPLC) named herein “NAT”, of said molecule.
On the basis of the in vitro toxicity experiments, the “SYN” and “NAT” molecules were first tested on C57/BL6 mice at concentrations of 10, 25, and 50 μg/mouse, as well as on a control batch which was injected with PBS, either via the IP (intraperitoneal) or retro-orbital (IV) routes. Each batch consisted of 4 animals. A total of 16 animals was used.
Following the experiment, a blood cell count was performed using the Cell Dyn Systems 3500/3700 machine from Abbott Laboratories. This test was carried out to reveal any possible functional alterations. […]

## CC(=O)OC/C=C(\C)CCC=C(C)C [AISA 5201, (E)-3,7-dimethyl-2,6-octadienyl acetate]
rats
  LD50: 6,330 mg/kg

## CC(=O)OC/C=C(\C)CCC=C(C)C [NAT, geranyl acetate]
C57/BL6 mice; first experiment, 10, 25, 50 μg/mouse tested
  most appropriate concentration (WBC, NEU, LYM, MONO and PLT values closest to control): 50 μg/mouse
C57/BL6 mice; mouse, in vivo
  blood cell count: remaining within the values of the standard range

— US8912230B2, “Method for treating cell degeneration using at least one molecule capable of inhibiting adhesion molecule expression and vascular endothelium actin fibre polymerization” (Aisa Therapeutics, priority 2004, dated 2014)
